Results on eight compounds are retold here after ChEMBL document CHEMBL1255522, “Novel amides and esters prodrugs of olmesartan: Synthesis, bioconversion, and pharmacokinetic evaluation” (Bioorg Med Chem Lett, 2010).

The structures appear in SMILES notation.

The data set is described as follows: Stability in Sprague-Dawley rat plasma assessed as compound remaining at 50 mg/ml after 30 mins. It is filed as ADME, cell-free. To be noted: read-out: Stability.
Turning to `CCCc1nc(C(C)(C)O)c(C(=O)NCCCCCC[N+](=O)[O-])n1Cc1ccc(-c2ccccc2C2=NNNN2)cc1`, the remaining at 0.5 h is 101%. In the case of `CCCc1nc(C(C)(C)O)c(C(=O)NCCCCCCC(=O)O)n1Cc1ccc(-c2ccccc2C2=NNNN2)cc1` it was 97.5%; in that of `CCCc1nc(C(C)(C)O)c(C(=O)OCc2c[nH]c(=O)[nH]c2=O)n1Cc1ccc(-c2ccccc2C2=NNNN2)cc1`, 96.3%.

In the case of `CCCc1nc(C(C)(C)O)c(C(=O)OCCCCCC[N+](=O)[O-])n1Cc1ccc(-c2ccccc2C2=NNNN2)cc1`, the remaining at 0.5 h was 100%. As for `CCCc1nc(C(C)(C)O)c(C(=O)OCCCCCCC(=O)OCC)n1Cc1ccc(-c2ccccc2C2=NNNN2)cc1`, the remaining at 0.5 h is 81.1%.

Consider `CCCc1nc(C(C)(C)O)c(C(=O)OCCCCCCC(=O)O)n1Cc1ccc(-c2ccccc2C2=NNNN2)cc1`, for which the remaining at 0.5 h was 98.8%. `CCCc1nc(C(C)(C)O)c(C(=O)NCCNCCO)n1Cc1ccc(-c2ccccc2C2=NNNN2)cc1`: the remaining at 0.5 h was 98.9%. Regarding `CCCCCCCCOC(=O)c1c(C(C)(C)O)nc(CCC)n1Cc1ccc(-c2ccccc2C2=NNNN2)cc1`, the remaining at 0.5 h worked out at 90.2%.
